For 14 molecules, inhibition results are on record in US12637468B2, “Substituted [1,2,4]triazolo[4,3-b]pyridazines as GABAA receptor modulators” (SHANGHAI SIMR BIOTECHNOLOGY CO., LTD., priority 2019, dated 2026).

The structures appear in SMILES notation.

For the assay, the target named is T1, α5-GABAA receptor (Homo sapiens, UniProt P18507+P31644).
T1 construct: expressed in transfected cells; host or cells: HEK293, monoclonal stably transfected line
Briefly: Cell-level screening: whole cell patch clamp, inverse agonist efficacy on α5-GABAA receptor expressed in HEK293. Conditions: drug 100 nM, GABA 0.05 μM, HEK293 expressing α5, β3 and γ2 subunits, clamped at −60 mV; read-out: Compound inverse agonist efficacy %. In kind it is cell-based. The gist of the method:
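Whole-cell patch clamp at −60 mV on HEK293 stably expressing α5β3γ2, pH 7.4 extracellular/CsCl internal solutions. Current evoked by 0.05 μM GABA, then compound in GABA solution; screening at 100 nM, dose-response 0.3–300 nM. Inverse agonist efficacy as % change of GABA current.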
For orientation: In patch-clamp work, channel activity is measured electrically.

T1 sequence (P31644 32-462): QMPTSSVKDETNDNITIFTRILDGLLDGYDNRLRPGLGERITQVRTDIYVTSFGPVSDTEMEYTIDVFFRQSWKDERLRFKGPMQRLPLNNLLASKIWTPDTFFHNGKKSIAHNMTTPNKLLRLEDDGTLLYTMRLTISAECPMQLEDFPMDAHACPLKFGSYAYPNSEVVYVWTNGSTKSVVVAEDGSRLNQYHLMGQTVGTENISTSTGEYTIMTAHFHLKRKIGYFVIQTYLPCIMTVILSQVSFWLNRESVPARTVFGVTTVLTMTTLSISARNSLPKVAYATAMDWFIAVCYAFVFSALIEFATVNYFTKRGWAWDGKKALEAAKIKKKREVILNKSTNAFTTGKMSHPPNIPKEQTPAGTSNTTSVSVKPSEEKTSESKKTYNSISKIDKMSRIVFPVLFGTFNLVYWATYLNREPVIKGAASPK
T1 sequence (P28472 26-473 partner): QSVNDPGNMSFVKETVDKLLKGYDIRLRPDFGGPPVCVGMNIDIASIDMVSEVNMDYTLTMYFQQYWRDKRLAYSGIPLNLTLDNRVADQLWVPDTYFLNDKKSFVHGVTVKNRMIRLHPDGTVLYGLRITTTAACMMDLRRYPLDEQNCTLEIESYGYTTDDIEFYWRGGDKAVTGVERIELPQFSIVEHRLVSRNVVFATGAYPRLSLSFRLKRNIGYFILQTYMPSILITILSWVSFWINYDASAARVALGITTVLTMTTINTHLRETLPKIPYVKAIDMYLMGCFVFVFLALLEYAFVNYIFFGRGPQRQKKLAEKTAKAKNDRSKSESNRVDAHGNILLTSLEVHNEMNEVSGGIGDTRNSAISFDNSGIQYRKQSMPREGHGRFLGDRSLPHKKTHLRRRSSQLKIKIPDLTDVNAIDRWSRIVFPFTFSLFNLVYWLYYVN
T1 sequence (P18507 40-467 isoform P18507-1 limits assumed): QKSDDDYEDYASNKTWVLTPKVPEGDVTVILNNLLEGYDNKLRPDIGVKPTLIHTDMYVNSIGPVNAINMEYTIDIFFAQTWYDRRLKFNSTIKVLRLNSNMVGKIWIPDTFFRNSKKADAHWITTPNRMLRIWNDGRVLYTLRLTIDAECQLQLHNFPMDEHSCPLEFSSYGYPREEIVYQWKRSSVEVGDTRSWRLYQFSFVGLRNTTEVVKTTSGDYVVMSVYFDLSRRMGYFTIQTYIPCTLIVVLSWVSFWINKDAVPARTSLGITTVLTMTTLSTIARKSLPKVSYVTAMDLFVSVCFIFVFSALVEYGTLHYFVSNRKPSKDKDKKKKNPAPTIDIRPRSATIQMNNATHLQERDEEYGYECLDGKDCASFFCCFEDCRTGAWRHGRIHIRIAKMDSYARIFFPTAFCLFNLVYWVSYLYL

With `COc1cc2nnc(-c3cc(C)on3)n2nc1OCc1ccc2c(n1)CCN(C1COC1)C2` [Embodiment 84, 3-(7-Methoxy-6-((6-(oxetan-3-yl)-5,6,7,8-tetrahydro-1,6-naphthyridin-2-yl)methoxy)-[1,2,4]triazolo[4,3-b]pyridazin-3-yl)-5-methylisoxazole], the inhibition at 0.1 µM turned out to be 39.6%.

On to `COc1cc2nnc(-c3cc(C)on3)n2nc1OCc1ccc(C2(F)CN(C3COC3)C2)cn1` [Embodiment 128], for which the inhibition at 0.1 µM was determined as 41.2%.

`COCCCOc1ccc(COc2nn3c(-c4noc(C)n4)nnc3cc2OC)nn1` [Embodiment 129]: the inhibition at 0.1 µM turned out to be 45.8%.

As for `COCc1ccc(COc2nn3c(-c4cc(C)on4)nnc3cc2OC)nn1` [Embodiment 151], the inhibition at 0.1 µM is 55.8%.

In the case of `COc1cc2nnc(-c3cc(C)on3)n2nc1OCc1ccc(OC2CCOCC2)nn1` [Embodiment 152], the inhibition at 0.1 µM was 39.3%.

As for `COc1cc2nnc(-c3cc(C)on3)n2nc1OCc1ccc(OC2COC2)nn1` [Embodiment 153], the inhibition at 0.1 µM was found to be 49.4%.

In the case of `COc1cc2nnc(-c3cc(C)on3)n2nc1OCc1ccc(OC2CCOC2)nn1` (centres unmarked) [Embodiment 154], the inhibition at 0.1 µM worked out at 45.2%.

`COc1cc2nnc(-c3cc(C)on3)n2nc1OCc1ccc2c(n1)CN(C)C2` [Embodiment 160, 3-(7-Methoxy-6-((6-methyl-6,7-dihydro-5H-pyrrolo[3,4-b]pyridin-2-yl)methoxy)-[1,2,4]triazolo[4,3-b]pyridazin-3-yl)-5-methylisoxazole]: the inhibition at 0.1 µM is 49.3%.

Turning to `COCCOCc1ccc(COc2nn3c(-c4cc(C)on4)nnc3cc2OC)nn1` [Embodiment 166], the inhibition at 0.1 µM amounted to 49.9%.

As to `COc1cc2nnc(-c3cc(C)on3)n2nc1OCc1ccc2c(n1)CCN(C(CO)CO)C2` [Embodiment 185], the inhibition at 0.1 µM is 45.6%.

`COc1cc2nnc(-c3cc(C)on3)n2nc1OCc1ccc2c(n1)CCN(C1CCOCC1)C2` [Embodiment 186]: the inhibition at 0.1 µM is 56%.

On to `COc1cc2nnc(-c3cc(C)on3)n2nc1OCc1ccc2c(n1)CCN(Cc1cc(C)on1)C2` [Embodiment 187], for which the inhibition at 0.1 µM worked out at 50.4%.

On to `COCc1cn2nc(COc3nn4c(-c5cc(C)on5)nnc4cc3OC)ccc2n1` [Embodiment 213], for which the inhibition at 0.1 µM is 59.5%.

As for `COc1cc2nnc(-c3cc(C)on3)n2nc1OCc1ccc2c(n1)CN(C1CCOCC1)C2` [Embodiment 253], the inhibition at 0.1 µM amounted to 56.1%.
